Assay: xn = mol fraction of the nth substance listed
Details: 100 kPa

CN(C)C=O + CC[n+]1ccn(C)c1.O=S(=O)([O-])C(F)(F)F
x1 = 1
Details | speed of sound [m/s] | viscosity [mPa·s]
303.15 K | 1449.1 | 0.77
308.15 K | 1435.2 | 0.72
313.15 K | 1421.2 | 0.69
318.15 K | 1407.2 | 0.65
323.15 K | 1393.6 | 0.62

OCCO + CC[n+]1ccn(C)c1.O=S(=O)([O-])C(F)(F)F
x1 = 1
Details | speed of sound [m/s] | viscosity [mPa·s]
298.15 K | 1655 | 16.39
303.15 K | 1643.2 | 13.49
313.15 K | 1619.7 | 9.34
323.15 K | 1596.1 | 6.75

CC[n+]1ccn(C)c1.O=S(=O)([O-])C(F)(F)F + CN(C)C=O
Details | speed of sound [m/s] | viscosity [mPa·s]
298.15 K, x2 = 0.0917 | 1438.8 | 36.96
298.15 K, x2 = 0.2995 | 1444 | 20.94
298.15 K, x2 = 0.406 | 1446 | 14.56
298.15 K, x2 = 0.5094 | 1448.4 | 8.77
298.15 K, x2 = 0.5976 | 1450.6 | 6.17
298.15 K, x2 = 0.6947 | 1453.4 | 3.45
298.15 K, x2 = 0.7981 | 1457.5 | 2.59
298.15 K, x2 = 0.8957 | 1460.7 | 1.54
303.15 K, x2 = 0.0917 | 1427.6 | 31.13
303.15 K, x2 = 0.1933 | 1428.8 | 24.16
303.15 K, x2 = 0.2995 | 1430.7 | 17.86
303.15 K, x2 = 0.5094 | 1434.6 | 7.75
303.15 K, x2 = 0.5976 | 1436.5 | 5.52
303.15 K, x2 = 0.6947 | 1439.7 | 3.21
303.15 K, x2 = 0.7981 | 1443.5 | 2.38
303.15 K, x2 = 0.8957 | 1446.8 | 1.44
308.15 K, x2 = 0.0917 | 1416 | 26.42
308.15 K, x2 = 0.1933 | 1417.8 | 20.62
308.15 K, x2 = 0.2995 | 1419.1 | 15.36
308.15 K, x2 = 0.5094 | 1422.7 | 6.9
308.15 K, x2 = 0.5976 | 1424.4 | 4.98
308.15 K, x2 = 0.6947 | 1426.9 | 2.99
308.15 K, x2 = 0.7981 | 1429.7 | 2.19
308.15 K, x2 = 0.8957 | 1432.8 | 1.34
313.15 K, x2 = 0.0917 | 1404.6 | 22.67
313.15 K, x2 = 0.1933 | 1406.5 | 17.78
313.15 K, x2 = 0.2995 | 1408 | 13.34
313.15 K, x2 = 0.406 | 1409.7 | 9.57
313.15 K, x2 = 0.5094 | 1411 | 6.18
313.15 K, x2 = 0.6947 | 1414.6 | 2.78
313.15 K, x2 = 0.8957 | 1419.2 | 1.25
318.15 K, x2 = 0.406 | 1398.7 | 8.46
318.15 K, x2 = 0.5094 | 1399.7 | 5.57
318.15 K, x2 = 0.5976 | 1400.4 | 4.1
318.15 K, x2 = 0.7981 | 1403.5 | 1.88
318.15 K, x2 = 0.8957 | 1405.3 | 1.18
323.15 K, x2 = 0.0917 | 1382.3 | 17.12
323.15 K, x2 = 0.1933 | 1384 | 13.56
323.15 K, x2 = 0.2995 | 1386 | 10.31
323.15 K, x2 = 0.406 | 1387.4 | 7.53
323.15 K, x2 = 0.5094 | 1388 | 5.05
323.15 K, x2 = 0.5976 | 1388.9 | 3.75
323.15 K, x2 = 0.7981 | 1390.6 | 1.75
323.15 K, x2 = 0.8957 | 1392.1 | 1.11

CC[n+]1ccn(C)c1.O=S(=O)([O-])C(F)(F)F + OCCO
Details | speed of sound [m/s] | viscosity [mPa·s]
298.15 K, x2 = 0.0943 | 1446 | 36.77
298.15 K, x2 = 0.2021 | 1453.2 | 29.22
298.15 K, x2 = 0.2937 | 1457.1 | 24.13
298.15 K, x2 = 0.408 | 1464.6 | 20.68
298.15 K, x2 = 0.5013 | 1473.4 | 18.72
298.15 K, x2 = 0.6019 | 1488.5 | 17.52
298.15 K, x2 = 0.6917 | 1510.9 | 16.97
298.15 K, x2 = 0.8964 | 1586.6 | 16.51
303.15 K, x2 = 0.2021 | 1442.1 | 24.77
303.15 K, x2 = 0.2937 | 1445.9 | 20.6
303.15 K, x2 = 0.408 | 1453.3 | 17.93
303.15 K, x2 = 0.5013 | 1462.1 | 16.38
303.15 K, x2 = 0.6019 | 1477.2 | 15.41
303.15 K, x2 = 0.6917 | 1499.5 | 14.89
303.15 K, x2 = 0.798 | 1532.6 | 14.39
303.15 K, x2 = 0.8964 | 1575.1 | 13.74
308.15 K, x2 = 0.0943 | 1423.9 | 26.23
308.15 K, x2 = 0.2021 | 1430.9 | 21.17
308.15 K, x2 = 0.2937 | 1434.8 | 17.74
308.15 K, x2 = 0.408 | 1442.2 | 15.7
308.15 K, x2 = 0.5013 | 1451 | 14.49
308.15 K, x2 = 0.6917 | 1488.2 | 13.23
308.15 K, x2 = 0.798 | 1521.5 | 12.63
313.15 K, x2 = 0.0943 | 1412.8 | 22.47
313.15 K, x2 = 0.2021 | 1419.9 | 18.26
313.15 K, x2 = 0.2937 | 1423.8 | 15.41
313.15 K, x2 = 0.5013 | 1439.9 | 12.93
313.15 K, x2 = 0.6019 | 1454.8 | 12.31
313.15 K, x2 = 0.6917 | 1477 | 11.88
313.15 K, x2 = 0.798 | 1509.9 | 11.22
313.15 K, x2 = 0.8964 | 1552.1 | 10.22
318.15 K, x2 = 0.2021 | 1409.1 | 15.91
318.15 K, x2 = 0.2937 | 1412.9 | 13.52
318.15 K, x2 = 0.408 | 1420.2 | 12.38
318.15 K, x2 = 0.5013 | 1428.8 | 11.66
318.15 K, x2 = 0.6019 | 1443.7 | 11.17
318.15 K, x2 = 0.6917 | 1465.7 | 10.76
318.15 K, x2 = 0.798 | 1498.5 | 10.07
318.15 K, x2 = 0.8964 | 1540.6 | 8.97
323.15 K, x2 = 0.2937 | 1402 | 11.94
323.15 K, x2 = 0.5013 | 1417.9 | 10.58
323.15 K, x2 = 0.6019 | 1432.7 | 10.2
323.15 K, x2 = 0.6917 | 1454.6 | 9.84
323.15 K, x2 = 0.798 | 1487.2 | 9.13
323.15 K, x2 = 0.8964 | 1529.1 | 7.95

Reference: a compilation of properties of binary mixtures (doi:10.1016/j.molliq.2018.09.007)
